Experimental findings from patent US8927500B2, “Peptidomimetic macrocycles” (Aileron Therapeutics, Inc., priority 2012, dated 2015) are described below.

In test [1] the target is MDM2 (Homo sapiens, UniProt Q00987). Put plainly: Competitive fluorescence polarization assay for MDM2. The test is classed as binding. The following applies: competitive FP assay, MDM2; for IC50: read-out: IC50 (MDM2); for Ki: read-out: Ki (MDM2). Background: Fluorescence polarisation rises when a labelled molecule tumbles more slowly, as on binding a larger partner.
Test [2] has as its target T1, MDMX (Homo sapiens, UniProt O15151).
T1 sequence (O15151 1-125): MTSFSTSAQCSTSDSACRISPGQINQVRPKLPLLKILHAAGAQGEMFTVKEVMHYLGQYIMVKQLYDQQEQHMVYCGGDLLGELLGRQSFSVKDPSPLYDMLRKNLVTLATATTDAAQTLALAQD
Description: Competitive fluorescence polarization assay for MDMX. Format: binding. The following applies: competitive FP assay; for IC50: read-out: IC50 (MDMX); for Ki: read-out: Ki (MDMX).

Where a SMILES comes first, the peptide text is derived from it. Bridges are numbered along the chain shown (N, C = ends). [ ]: non-standard residue; d: D form. The star is where a group is joined. Phe(3,4-F2) = N[C@@H](Cc1ccc(F)c(F)c1)C(=O)O; Palmitoyl = CCCCCCCCCCCCCCCC(=O)*; R8 = C=CCCCCCC[C@@](C)(N)C(=O)O; Cba = N[C@@H](CC1CCC1)C(=O)O; S5 = C=CCCC[C@](C)(N)C(=O)O; Nle = CCCC[C@H](N)C(=O)O

Chain of MDM2 (Q00987 1-125): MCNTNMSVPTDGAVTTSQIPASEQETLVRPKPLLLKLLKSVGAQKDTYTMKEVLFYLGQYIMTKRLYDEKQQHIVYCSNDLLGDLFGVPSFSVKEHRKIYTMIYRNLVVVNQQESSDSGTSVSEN

With `CCCC[C@H](NC(=O)[C@H](C)NC(=O)[C@H](CO)NC(=O)[C@]1(C)CCCC=CCCCCCC[C@@](C)(NC(=O)[C@H](Cc2ccccc2)NC(=O)[C@@H](NC(=O)[C@H](CC(C)C)NC(C)=O)[C@@H](C)O)C(=O)N[C@@H](CCC(=O)O)C(=O)N[C@@H](Cc2ccc(O)cc2)C(=O)N[C@@H](Cc2c[nH]c3ccccc23)C(=O)N[C@@H](Cc2c[nH]c3ccccc23)C(=O)N[C@@H](CCC(N)=O)C(=O)N[C@@H](CC2CCC2)C(=O)N1)C(=O)N[C@@H](C)C(N)=O` [compound 246] (Ac-LTF[R8]EYWWQ[Cba][S5]SA[Nle]A-NH2; staple 4-11), the concentration for half-maximal inhibition (IC50) – broadly, the midpoint of a concentration-inhibition curve – in test [1] fell in the range of 10 to 100 nM; in test [2], 100 to 1000 nM. Moreover, the Ki (usually the dissociation constant of the complex between target and ligand, obtained from inhibition or displacement) in test [1] is below 10 nM; in test [2], 10 to 100 nM.

Consider `CC[C@H](C)[C@H](NC(=O)[C@H](C)NC(=O)[C@H](C)NC(=O)[C@]1(C)CCCC=CCCCCCC[C@@](C)(NC(=O)[C@H](Cc2ccc(F)c(F)c2)NC(=O)[C@@H](NC(=O)[C@H](CC(C)C)NC(C)=O)[C@@H](C)O)C(=O)N[C@@H](CCC(=O)O)C(=O)N[C@@H](Cc2ccc(O)cc2)C(=O)N[C@@H](Cc2c[nH]c3ccccc23)C(=O)N[C@@H](C)C(=O)N[C@@H](CCC(N)=O)C(=O)N[C@@H](CC2CCC2)C(=O)N1)C(=O)N[C@H](C)C(N)=O` [compound 248] (Ac-LT[Phe(3,4-F2)][R8]EYWAQ[Cba][S5]AAI[dA]-NH2; staple 4-11), for which, in test [1], the IC50 was in the range of 10 to 100 nM and the inhibitory constant (Ki) is below 10 nM. In addition, in test [2], the IC50 lay in the range of 10 to 100 nM and the Ki is 10 to 100 nM.

For the compound `CCCCCCCCCCCCCCCC(=O)N[C@@H](CCC(=O)O)C(=O)N[C@H](C(=O)N[C@@H](Cc1ccccc1)C(=O)N[C@]1(C)CCCCCCC=CCCC[C@@](C)(C(=O)N[C@@H](CO)C(=O)N[C@@H](C)C(=O)N[C@@H](C)C(N)=O)NC(=O)[C@H](CC2CCC2)NC(=O)[C@H](CCC(N)=O)NC(=O)[C@H](C)NC(=O)[C@H](Cc2c[nH]c3ccccc23)NC(=O)[C@H](Cc2ccc(O)cc2)NC(=O)[C@H](CCC(=O)O)NC1=O)[C@@H](C)O` [compound 250] (Palmitoyl-ETF[R8]EYWAQ[Cba][S5]SAA-NH2; staple 4-11), the figures for the IC50 in test [1] and in test [2] were 100 to 1000 nM and above 1000 nM, respectively. Moreover, the results for the Ki in test [1] and in test [2] were 100 to 1000 nM and above 1000 nM, respectively.

Take `CC(=O)N[C@@H](CC(C)C)C(=O)N[C@H](C(=O)N[C@@H](Cc1ccccc1)C(=O)N[C@]1(C)CCCCCCC=CCCC[C@@](C)(C(=O)N[C@@H](CO)C(=O)N[C@@H](C)C(=O)N[C@@H](C)C(N)=O)NC(=O)[C@H](CC2CCC2)NC(=O)[C@H](CCC(N)=O)NC(=O)[C@H](C)NC(=O)[C@H](Cc2c[nH]c3ccccc23)NC(=O)[C@H](Cc2ccc(O)cc2)NC(=O)[C@H](C)NC1=O)[C@@H](C)O` [compound 255] (Ac-LTF[R8]AYWAQ[Cba][S5]SAA-NH2; staple 4-11): in test [1], the IC50 lay in the range of 10 to 100 nM and the Ki is below 10 nM. Further, in test [2], the IC50 lay in the range of 10 to 100 nM and the inhibition constant Ki lay in the range of 10 to 100 nM.

As for `CC(=O)N[C@@H](CC(C)C)C(=O)N[C@H](C(=O)N[C@@H](Cc1ccccc1)C(=O)N[C@]1(C)CCCCCCC=CCCC[C@@](C)(C(=O)N[C@@H](CO)C(=O)N[C@@H](C)C(=O)N[C@@H](Cc2ccccc2)C(N)=O)NC(=O)[C@H](CC2CCC2)NC(=O)[C@H](CCC(N)=O)NC(=O)[C@H](C)NC(=O)[C@H](Cc2c[nH]c3ccccc23)NC(=O)[C@H](Cc2ccc(O)cc2)NC(=O)[C@H](CCC(=O)O)NC1=O)[C@@H](C)O` [compound 256] (Ac-LTF[R8]EYWAQ[Cba][S5]SAF-NH2; staple 4-11), in test [1], the IC50 is 10 to 100 nM and the Ki was below 10 nM. In addition, in test [2], the half-maximal inhibitory concentration (IC50) lay in the range of 10 to 100 nM and the inhibitory constant (Ki) was 10 to 100 nM.
